The text below walks through data of patent US6610699B2, “Use of L-carnitine and its alkanoyl derivatives in the preparation of medicaments with anticancer activity” (Sigma-Tau Industrie Farmaceutiche Riunite S.p.A., priority 1998, dated 2003).

Molecules are shown by their SMILES. Marks after values point to notes of the source that are not given here.

One data set deals with Hamsters. The data set can be described thus: Bleomycin-induced pulmonary toxicity in hamsters: lung histology. In kind it is in vivo, hamster. Particulars: day 22. The procedure: Hamsters weighing 120 g were treated with bleomycin (1 unit) by the intratracheal route (IT) or with an equivalent volume of saline. In addition, the animals were pre-treated with ALC (200 mg/kg) or saline intraperitoneally just before the instillation of bleomycin, followed by daily injections for 1 week. The animals were allowed 3 weeks to recover prior to taking the tissue samples. At the time tissue samples were taken (day 22), one lung of each animal was prepared for histological investigation and the other lung for quantitative determination of hydroxyproline.
The lungs were fixed by insufflation at 20 cm of H2O ex vivo with 10% formaldehyde in PBS (pH 7), embedded in paraffin, sectioned and stained with haematoxylin/eosin. Sections with similar orientation from the portion of the pulmonary lobe—upper, middle and lower, respectively—were examined to verify the presence and degree of inflammatory infiltrate, oedema and interstitial and intra-alveolar fibrosis.

Data set [1] in a line: Taxol-induced weight loss: body weight. Particulars: for Body weight, BASAL: prior to starting treatment; for Body weight, % vs BASALE / Body weight, % vs SHAM: 5 weeks; for Body weight, 5 WEEKS: end of treatment. In kind it is in vivo, rat. An excerpt: The animals used in the preceding experimental model were weighed prior to starting treatment (basal values) and at the end of treatment.

Regarding `CC(=O)O[C@H](CC(=O)[O-])C[N+](C)(C)C` [ALC, acetyl L-carnitine], the “lung histology (in words)” value in the data set on Hamsters (animals pre-treated with ALC and given bleomycin IT) was “a number of fibrotic areas, which, however, appeared thinner with less dense areas of collapse”; with Hamsters (pre-treatment/IT instillation) it was “normal alveolar architecture”.

In the case of `CC(=O)O[C@H]1C(=O)[C@@]2(C)[C@H]([C@H](OC(=O)c3ccccc3)[C@]3(O)C[C@H](OC(=O)[C@H](O)[C@@H](NC(=O)c4ccccc4)c4ccccc4)C(C)=C1C3(C)C)[C@]1(OC(C)=O)CO[C@@H]1C[C@@H]2O` [Taxol, paclitaxel, reference compound], the “Body weight, BASAL” value in data set [1] (taxol 8 mg/kg groups) came to 210 ± 9.1. In data set [1] (taxol 8 mg/kg), the “Body weight, % vs BASALE” value is recorded as “+13** %”; the “Body weight, % vs SHAM” value is on record as “+1%”; the “Body weight, 5 WEEKS” value is recorded as 237 ± 20.8. In addition, in data set [1] (taxol 16 mg/kg groups), the “Body weight, BASAL” value is recorded as 212 ± 12.5. In data set [1] (taxol 16 mg/kg), the “Body weight, % vs BASALE” value was −15** %; the “Body weight, % vs SHAM” value is listed as −23● %; the “Body weight, 5 WEEKS” value is given as 180 ± 16.0.
